# According to patent US8674113B2, “Compounds” (Boehringer Ingelheim International GmbH, priority 2010, dated 2014):
# Target: mPGES-1 in A549 cells (Homo sapiens (Human), UniProt O14684)
# Experiment: A549 cell-based assay (PGE2 formation, 50% human serum)
# Conditions: IL-1β 5 ng/ml, 10 nM arachidonic acid, 20-24 h, read-out: mPGES-1 inhibitory effect IC50 in the cell assay
# Procedure: Although the enzymatic assay is a high throughput assay the disadvantage is that it uses a recombinant protein which is not in its natural environment. Accordingly a cellular assay was established in which a cell line of human origin (A549) expressing the mPGES-1 protein was used. In addition in order to mimic the situation in humans in which compounds can be bound to plasma proteins 50% human serum is added in the assay.
# A549 cells (ATCC: CCL-185) are grown to about 90% confluence in F-12K Nutrient Mixture (Kaighn's Mod. Gibco) containing 10% FBS in a humified incubator at 37° C. and 5% CO2. Cells were detached using Trypsin-EDTA. A549 cells were seeded in a 384-well collagene plate at a density of 7000 cells/well (50 μl) in F-12 medium containing 1% Penicillin-Streptomycin and 50% human serum. The cells were allowed to attach for 3-4 h. After that the cells were incubated for 20-24 h in F-12k medium supplemented with 50% human serum, 1% Penicillin-Streptomycin and containing IL-1β at a final concentration of 5 ng/ml as well as 10 nM arachidonic acid in the presence of a vehicle or a test compound. The total volume is 100 μl.
# Concentrations of PGE2 in the cell free medium (10 μl) were measured using a commercially available HTRF kit from Cisbio (as described above). The PGE2 formation in the absence of test compound was taken as 100%.
# IC50 values were derived from at 6-8 point titrations using conventional software.
# Sequence of mPGES-1 in A549 cells (O14684 whole entry): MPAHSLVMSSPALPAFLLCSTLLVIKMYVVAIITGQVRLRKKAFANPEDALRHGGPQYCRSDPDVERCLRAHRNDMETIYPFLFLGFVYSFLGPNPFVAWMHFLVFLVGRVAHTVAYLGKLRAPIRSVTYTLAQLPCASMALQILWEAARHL
row,IC50 [nM],SMILES
1,6,Cn1c(Nc2c(Cl)ccc(CNC(=O)c3c(F)cncc3F)c2Cl)nc2cc(C(=O)N[C@H]3CC[C@H](C(F)(F)F)CC3)c(N3CC4CC4C3)cc21 (some centres unmarked) [Example 201]
2,42,Cn1c(Nc2c(Cl)ccc(CNC(=O)c3cccc(CO)n3)c2Cl)nc2cc(C(=O)N[C@H]3CC[C@H](C(F)(F)F)CC3)c(N3CC4CC4C3)cc21 (some centres unmarked) [Example 206]
3,8,CCn1c(C(=O)NCc2ccc(Cl)c(Nc3nc4cc(C(=O)N[C@H]5CC[C@H](C(F)(F)F)CC5)c(N5CC6CC6C5)cc4n3C)c2Cl)cccc1=O (some centres unmarked) [Example 210]
4,41,COc1cncc(C(=O)NCc2ccc(Cl)c(Nc3nc4cc(C(=O)N[C@H]5CC[C@H](C(F)(F)F)CC5)c(N5CC6CC6C5)cc4n3C)c2Cl)n1 (some centres unmarked) [Example 213]
5,> 100,Cn1c(Nc2c(Cl)ccc(CNC(=O)c3ncn[nH]3)c2Cl)nc2cc(C(=O)N[C@H]3CC[C@H](C(F)(F)F)CC3)c(N3CC4CC4C3)cc21 (some centres unmarked) [Example 215]
6,> 100,Cn1cncc1C(=O)NCc1ccc(Cl)c(Nc2nc3cc(C(=O)N[C@H]4CC[C@H](C(F)(F)F)CC4)c(N4CC5CC5C4)cc3n2C)c1Cl (some centres unmarked) [Example 217]
7,119,Cn1c(Nc2c(Cl)ccc(CNC(=O)c3c[nH]cn3)c2Cl)nc2cc(C(=O)N[C@H]3CC[C@H](C(F)(F)F)CC3)c(N3CC4CC4C3)cc21 (some centres unmarked) [Example 220]
8,100,Cc1noc(N)c1C(=O)NCc1ccc(Cl)c(Nc2nc3cc(C(=O)N[C@H]4CC[C@H](C(F)(F)F)CC4)c(N4CC5CC5C4)cc3n2C)c1Cl (some centres unmarked) [Example 222]
9,67,Cc1noc(C)c1C(=O)NCc1ccc(Cl)c(Nc2nc3cc(C(=O)N[C@H]4CC[C@H](C(F)(F)F)CC4)c(N4CC5CC5C4)cc3n2C)c1Cl (some centres unmarked) [Example 224]
10,> 100,Cc1nc(C(=O)NCc2ccc(Cl)c(Nc3nc4cc(C(=O)N[C@H]5CC[C@H](C(F)(F)F)CC5)c(N5CC6CC6C5)cc4n3C)c2Cl)cs1 (some centres unmarked) [Example 228]
11,6.5,CC(C)(C)C(=O)NCc1ccc(Cl)c(Nc2nc3cc(C(=O)Nc4ccc(OC(F)(F)F)cc4)c(N4CCOCC4)cc3n2CCC(N)=O)c1Cl [Example 268]

# The next lines start with the compound.
row,SMILES,IC50 [nM]
1,COc1cncc(C(=O)NCc2ccc(Cl)c(Nc3nc4cc(C(=O)N[C@H]5CC[C@H](C(F)(F)F)CC5)c(N5CC6CC6C5)cc4n3C)c2Cl)c1 (some centres unmarked) [Example 200],> 100
2,Cc1cc(C)nc(C(=O)NCc2ccc(Cl)c(Nc3nc4cc(C(=O)N[C@H]5CC[C@H](C(F)(F)F)CC5)c(N5CC6CC6C5)cc4n3C)c2Cl)c1 (some centres unmarked) [Example 202],57
3,CNc1cc(C(=O)NCc2ccc(Cl)c(Nc3nc4cc(C(=O)N[C@H]5CC[C@H](C(F)(F)F)CC5)c(N5CC6CC6C5)cc4n3C)c2Cl)ccn1 (some centres unmarked) [Example 203],46
4,COc1cccc(C(=O)NCc2ccc(Cl)c(Nc3nc4cc(C(=O)N[C@H]5CC[C@H](C(F)(F)F)CC5)c(N5CC6CC6C5)cc4n3C)c2Cl)n1 (some centres unmarked) [Example 204],49
5,Cn1c(Nc2c(Cl)ccc(CNC(=O)c3cncc(O)c3)c2Cl)nc2cc(C(=O)N[C@H]3CC[C@H](C(F)(F)F)CC3)c(N3CC4CC4C3)cc21 (some centres unmarked) [Example 205],> 100
6,Cn1c(Nc2c(Cl)ccc(CNC(=O)c3cc(CO)ccn3)c2Cl)nc2cc(C(=O)N[C@H]3CC[C@H](C(F)(F)F)CC3)c(N3CC4CC4C3)cc21 (some centres unmarked) [Example 207],170
7,Cn1c(Nc2c(Cl)ccc(CNC(=O)c3cccc(C#N)n3)c2Cl)nc2cc(C(=O)N[C@H]3CC[C@H](C(F)(F)F)CC3)c(N3CC4CC4C3)cc21 (some centres unmarked) [Example 208],21
8,Cn1c(Nc2c(Cl)ccc(CNC(=O)c3cc(C#N)ccn3)c2Cl)nc2cc(C(=O)N[C@H]3CC[C@H](C(F)(F)F)CC3)c(N3CC4CC4C3)cc21 (some centres unmarked) [Example 209],6.5
9,COc1ncccc1C(=O)NCc1ccc(Cl)c(Nc2nc3cc(C(=O)N[C@H]4CC[C@H](C(F)(F)F)CC4)c(N4CC5CC5C4)cc3n2C)c1Cl (some centres unmarked) [Example 211],106
10,Cn1c(Nc2c(Cl)ccc(CNC(=O)c3ccc(C#N)nc3)c2Cl)nc2cc(C(=O)N[C@H]3CC[C@H](C(F)(F)F)CC3)c(N3CC4CC4C3)cc21 (some centres unmarked) [Example 212],1.7
11,CNc1cncc(C(=O)NCc2ccc(Cl)c(Nc3nc4cc(C(=O)N[C@H]5CC[C@H](C(F)(F)F)CC5)c(N5CC6CC6C5)cc4n3C)c2Cl)n1 (some centres unmarked) [Example 214],113
12,Cn1ccnc1C(=O)NCc1ccc(Cl)c(Nc2nc3cc(C(=O)N[C@H]4CC[C@H](C(F)(F)F)CC4)c(N4CC5CC5C4)cc3n2C)c1Cl (some centres unmarked) [Example 216],27
13,Cn1c(Nc2c(Cl)ccc(CNC(=O)c3cc(O)[nH]n3)c2Cl)nc2cc(C(=O)N[C@H]3CC[C@H](C(F)(F)F)CC3)c(N3CC4CC4C3)cc21 (some centres unmarked) [Example 218],98
14,Cc1cc(C(=O)NCc2ccc(Cl)c(Nc3nc4cc(C(=O)N[C@H]5CC[C@H](C(F)(F)F)CC5)c(N5CC6CC6C5)cc4n3C)c2Cl)nn1C (some centres unmarked) [Example 219],> 100
15,Cn1c(Nc2c(Cl)ccc(CNC(=O)c3cn[nH]c3)c2Cl)nc2cc(C(=O)N[C@H]3CC[C@H](C(F)(F)F)CC3)c(N3CC4CC4C3)cc21 (some centres unmarked) [Example 221],53
16,Cc1cc(C(=O)NCc2ccc(Cl)c(Nc3nc4cc(C(=O)N[C@H]5CC[C@H](C(F)(F)F)CC5)c(N5CC6CC6C5)cc4n3C)c2Cl)no1 (some centres unmarked) [Example 223],12
17,Cc1nc(N)sc1C(=O)NCc1ccc(Cl)c(Nc2nc3cc(C(=O)N[C@H]4CC[C@H](C(F)(F)F)CC4)c(N4CC5CC5C4)cc3n2C)c1Cl (some centres unmarked) [Example 225],71
18,Cn1c(Nc2c(Cl)ccc(CNC(=O)c3cnc(N)s3)c2Cl)nc2cc(C(=O)N[C@H]3CC[C@H](C(F)(F)F)CC3)c(N3CC4CC4C3)cc21 (some centres unmarked) [Example 226],98
19,Cc1nc(C)c(C(=O)NCc2ccc(Cl)c(Nc3nc4cc(C(=O)N[C@H]5CC[C@H](C(F)(F)F)CC5)c(N5CC6CC6C5)cc4n3C)c2Cl)s1 (some centres unmarked) [Example 227],43
20,Cn1c(Nc2c(Cl)ccc(CNC(=O)c3csc(N)n3)c2Cl)nc2cc(C(=O)N[C@H]3CC[C@H](C(F)(F)F)CC3)c(N3CC4CC4C3)cc21 (some centres unmarked) [Example 229],4.6
21,Cn1c(Nc2c(Cl)ccc(CNC(=O)c3cc[nH]n3)c2Cl)nc2cc(C(=O)N[C@H]3CC[C@H](C(F)(F)F)CC3)c(N3CC4CC4C3)cc21 (some centres unmarked) [Example 230],40
22,Cn1c(Nc2c(Cl)ccc(CNC(=O)OC(C)(C)C)c2Cl)nc2cc(C(=O)NCCC(F)(F)F)c(N3CC4CC4C3)cc21 (centres unmarked) [Example 266],23
23,Cn1c(Nc2c(Cl)ccc(CNC(=O)C(C)(C)C)c2Cl)nc2cc(C(=O)Nc3ccc(OC(F)(F)F)cc3)c(N3CCC(F)CC3)cc21 [Example 267],1.7
24,CC(C)(F)C(=O)NCc1ccc(Cl)c(Nc2nc3cc(C(=O)NCCC(F)(F)F)c(N4CCC(C(F)(F)F)CC4)cc3n2C(C)(C)CO)c1Cl [Example 269],55
